Measured values published in patent publication EP0908457B1, “3-(1,2-benzisothiazol- and isoxazol-5-Y1)-2,4(1H,3H)-pyrimidinedione or thione and 3-(1,2-benzisothiazol- and isoxazol-5-y1)-4(3H)-pyrimidinone or thione herbicidal agents” (BASF AKTIENGESELLSCHAFT, priority 1997, dated 1999).

What was measured:
Cyperus iria = test: Preemergence weed control under flooded paddy conditions, CYPIR (Rice Flatsedge); format: in vivo; conditions: flooded paddy; for herbicidal effect rating, CYPIR: preemergence, rated three to four weeks after treatment; for CYPIR: preemergence weeds, herbicidal effect rating 0-9, three to four weeks after treatment; as to herbicidal effect rating, CYPIR: meaning of each grade not given here
[1] = system: Cyperus serotinus, Rottb.; test: Preemergence weed control under flooded paddy conditions, CYPSE (Flatsedge); format: in vivo; conditions: for herbicidal effect rating, CYPSE: preemergence, rated three to four weeks after treatment; for CYPSE: preemergence weeds, herbicidal effect rating 0-9, three to four weeks after treatment; as to herbicidal effect rating, CYPSE: meaning of each grade not given here
[2] = system: Echinochloa oryzoides (Ard.) Fritsch.; test: Preemergence weed control under flooded paddy conditions, ECHORC (Watergrass (Calif.)); format: in vivo; conditions: flooded paddy; for herbicidal effect rating, ECHORC: preemergence, rated three to four weeks after treatment; for ECHORC: preemergence weeds, herbicidal effect rating 0-9, three to four weeks after treatment; as to herbicidal effect rating, ECHORC: meaning of each grade not given here
Sagittaria pygmaea, L. = test: Preemergence weed control under flooded paddy conditions, SAGPY (Arrowhead (Pygmaea)); format: in vivo; conditions: preemergence, flooded paddy, rated three to four weeks after treatment; also: meaning of each grade not given here
[3] = system: Oryza sativa, (L.) Tebonnet; test: Rice tolerance to post-transplant applications under flooded paddy conditions (Example 187), ORYSAT (Rice, Tebonnet); conditions: for herbicidal effect rating, ORYSAT (rice tolerance): rated three to four weeks after treatment; for ORYSAT: herbicidal effect rating 0-9, three to four weeks after treatment
[4] = system: Monochoria vaginalis, Presl.; test: Preemergence weed control under flooded paddy conditions, MOOVA (Monochoria); format: in vivo; conditions: flooded paddy; for herbicidal effect rating, MOOVA: preemergence, rated three to four weeks after treatment; for MOOVA: preemergence weeds, herbicidal effect rating 0-9, three to four weeks after treatment; as to herbicidal effect rating, MOOVA: meaning of each grade not given here

For `COC(=O)COc1noc2ccc(-n3c(=O)cc(C(F)(F)F)n(C)c3=O)cc12` [Example 22, Methyl {{5-[3,6-dihydro-3-methyl-2,6-dioxo-4-(trifluoromethyl)-1(2H)-pyrimidinyl]-1,2-benzisoxazol-3-yl}oxy}acetate], the “herbicidal effect rating, CYPIR” value (Cyperus iria; 0.0313 kg/ha) was 9.0, the “herbicidal effect rating, CYPIR” value (Cyperus iria; 0.0625 kg/ha) was 9.0 and the “herbicidal effect rating, CYPIR” value (Cyperus iria; 0.1250 kg/ha) was 9.0. The “herbicidal effect rating, CYPIR” value (Cyperus iria; 0.2500 kg/ha) was 9.0, the “herbicidal effect rating, CYPSE” value ([1]; 0.0313 kg/ha) was 2.0 and the “herbicidal effect rating, CYPSE” value ([1]; 0.0625 kg/ha) was 7.0. The “herbicidal effect rating, CYPSE” value ([1]; 0.1250 kg/ha) was 7.0, the “herbicidal effect rating, CYPSE” value ([1]; 0.2500 kg/ha) was 9.0 and the “herbicidal effect rating, ECHORC” value ([2]; 0.0313 kg/ha) was 9.0. For the same compound, the “herbicidal effect rating, ECHORC” value ([2]; 0.0625 kg/ha) was 9.0, the “herbicidal effect rating, ECHORC” value ([2]; 0.1250 kg/ha) was 9.0 and the “herbicidal effect rating, ECHORC” value ([2]; 0.2500 kg/ha) was 9.0. For the same compound, the “herbicidal effect rating, SAGPY” value (Sagittaria pygmaea, L.; 0.0313 kg/ha) was 0.0, the “herbicidal effect rating, SAGPY” value (Sagittaria pygmaea, L.; 0.0625 kg/ha) was 2.0 and the “herbicidal effect rating, SAGPY” value (Sagittaria pygmaea, L.; 0.1250 kg/ha) was 4.0. The “herbicidal effect rating, SAGPY” value (Sagittaria pygmaea, L.; 0.2500 kg/ha) was 9.0, the “herbicidal effect rating, ORYSAT (rice tolerance)” value (from here on “herbicidal effect rating, ORYSAT”) ([3]; 0.0313 kg/ha) was 2.0 and the “herbicidal effect rating, ORYSAT” value ([3]; 0.0625 kg/ha) was 2.0. The “herbicidal effect rating, ORYSAT” value ([3]; 0.1250 kg/ha) was 2.5, the “herbicidal effect rating, ORYSAT” value ([3]; 0.2500 kg/ha) was 2.5 and the “herbicidal effect rating, MOOVA” value ([4]; 0.0313 kg/ha) was 9.0. For the same compound, the “herbicidal effect rating, MOOVA” value ([4]; 0.0625 kg/ha) was 9.0, the “herbicidal effect rating, MOOVA” value ([4]; 0.1250 kg/ha) was 9.0 and the “herbicidal effect rating, MOOVA” value ([4]; 0.2500 kg/ha) was 9.0.
For `Cc1noc2cc(F)c(-n3c(=O)cc(C(F)(F)F)n(C)c3=O)cc12` [Example 23, 3-(6-Fluoro-3-methyl-1,2-benzisoxazol-5-yl)-1-methyl-6-(trifluoromethyl)-2,4(1H,3H)-pyrimidinedione], the “herbicidal effect rating, CYPIR” value (Cyperus iria; 0.0313 kg/ha) was 7.0, the “herbicidal effect rating, CYPIR” value (Cyperus iria; 0.0625 kg/ha) was 9.0 and the “herbicidal effect rating, CYPIR” value (Cyperus iria; 0.1250 kg/ha) was 9.0. The “herbicidal effect rating, CYPIR” value (Cyperus iria; 0.2500 kg/ha) was 9.0, the “herbicidal effect rating, CYPSE” value ([1]; 0.0313 kg/ha) was 4.0 and the “herbicidal effect rating, CYPSE” value ([1]; 0.0625 kg/ha) was 7.0. For the same compound, the “herbicidal effect rating, CYPSE” value ([1]; 0.1250 kg/ha) was 8.0, the “herbicidal effect rating, CYPSE” value ([1]; 0.2500 kg/ha) was 9.0 and the “herbicidal effect rating, ECHORC” value ([2]; 0.0313 kg/ha) was 4.5. For the same compound, the “herbicidal effect rating, ECHORC” value ([2]; 0.0625 kg/ha) was 7.0, the “herbicidal effect rating, ECHORC” value ([2]; 0.1250 kg/ha) was 8.5 and the “herbicidal effect rating, ECHORC” value ([2]; 0.2500 kg/ha) was 9.0. The “herbicidal effect rating, SAGPY” value (Sagittaria pygmaea, L.; 0.0313 kg/ha) was 4.0, the “herbicidal effect rating, SAGPY” value (Sagittaria pygmaea, L.; 0.0625 kg/ha) was 6.0 and the “herbicidal effect rating, SAGPY” value (Sagittaria pygmaea, L.; 0.1250 kg/ha) was 9.0. For the same compound, the “herbicidal effect rating, SAGPY” value (Sagittaria pygmaea, L.; 0.2500 kg/ha) was 9.0, the “herbicidal effect rating, ORYSAT” value ([3]; 0.0313 kg/ha) was 5.5 and the “herbicidal effect rating, ORYSAT” value ([3]; 0.0625 kg/ha) was 6.5. For the same compound, the “herbicidal effect rating, ORYSAT” value ([3]; 0.1250 kg/ha) was 8.0, the “herbicidal effect rating, ORYSAT” value ([3]; 0.2500 kg/ha) was 8.5 and the “herbicidal effect rating, MOOVA” value ([4]; 0.0313 kg/ha) was 9.0. The “herbicidal effect rating, MOOVA” value ([4]; 0.0625 kg/ha) was 9.0, the “herbicidal effect rating, MOOVA” value ([4]; 0.1250 kg/ha) was 9.0 and the “herbicidal effect rating, MOOVA” value ([4]; 0.2500 kg/ha) was 9.0.
`CC(OS(=O)(=O)c1ccccc1)c1nsc2ccc(-n3c(=O)cc(C(F)(F)F)n(C)c3=O)cc12` (centres unmarked) [Example 415, 2,4(1H,3H)-Pyrimidinedione, 3-[3-(1-hydroxyethyl)-1,2-benzisothiazol-5-yl]-1-methyl-6-(trifluoromethyl)-, benzenesulfonate (ester)] was tested, and the CYPIR (Cyperus iria; 0.0320 kg/ha) was 0.0, the CYPIR (Cyperus iria; 0.0620 kg/ha) was 0.0 and the CYPIR (Cyperus iria; 0.1250 kg/ha) was 2.0. It also gave a CYPIR (Cyperus iria; 0.2500 kg/ha) of 6.0, a CYPSE ([1]; 0.0320 kg/ha) of 0.0 and a CYPSE ([1]; 0.0620 kg/ha) of 0.0. It also gave an ECHORC ([2]; 0.0320 kg/ha) of 0.0, an ECHORC ([2]; 0.0620 kg/ha) of 0.0 and an ECHORC ([2]; 0.1250 kg/ha) of 3.0. For the same compound, the ECHORC ([2]; 0.2500 kg/ha) was 9.0, the ORYSAT ([3]; 0.0320 kg/ha) was 3.0 and the ORYSAT ([3]; 0.0620 kg/ha) was 4.0. The ORYSAT ([3]; 0.1250 kg/ha) was 5.0, the ORYSAT ([3]; 0.2500 kg/ha) was 9.0 and the MOOVA ([4]; 0.0320 kg/ha) was 5.0. It also gave an MOOVA ([4]; 0.0620 kg/ha) of 5.0, an MOOVA ([4]; 0.1250 kg/ha) of 5.0 and an MOOVA ([4]; 0.2500 kg/ha) of 8.0.
`CC(Cl)c1nsc2ccc(-n3c(=O)cc(C(F)(F)F)n(C)c3=O)cc12` (centres unmarked) [Example 416, 2,4(1H,3H)-Pyrimidinedione, 3-[3-(1-chloroethyl)-1,2-benzisothiazol-5-yl]-1-methyl-6-(trifluoromethyl)-] was tested, and the CYPIR (Cyperus iria; 0.0320 kg/ha) was 4.0, the CYPIR (Cyperus iria; 0.0620 kg/ha) was 4.0 and the CYPIR (Cyperus iria; 0.1250 kg/ha) was 4.0. The CYPIR (Cyperus iria; 0.2500 kg/ha) was 8.0, the CYPSE ([1]; 0.0320 kg/ha) was 0.0 and the CYPSE ([1]; 0.0620 kg/ha) was 0.0. For the same compound, the CYPSE ([1]; 0.1250 kg/ha) was 0.0, the CYPSE ([1]; 0.2500 kg/ha) was 3.0 and the ECHORC ([2]; 0.0320 kg/ha) was 0.0. For the same compound, the ECHORC ([2]; 0.0620 kg/ha) was 3.0, the ECHORC ([2]; 0.1250 kg/ha) was 3.0 and the ECHORC ([2]; 0.2500 kg/ha) was 9.0. The ORYSAT ([3]; 0.0320 kg/ha) was 6.0, the ORYSAT ([3]; 0.0620 kg/ha) was 7.0 and the ORYSAT ([3]; 0.1250 kg/ha) was 9.0. The ORYSAT ([3]; 0.2500 kg/ha) was 9.0, the MOOVA ([4]; 0.0320 kg/ha) was 7.0 and the MOOVA ([4]; 0.0620 kg/ha) was 7.0. For the same compound, the MOOVA ([4]; 0.1250 kg/ha) was 7.0 and the MOOVA ([4]; 0.2500 kg/ha) was 9.0.
